{"source": "patent US20180064712A1", "about": "“METHODS OF REDUCING IMMUNE CELL ACTIVATION AND USES THEREOF” (Washington University, priority 2016, published 2018)", "key": {"IL-15 TM cells [1]": {"system": "IL-15 TM cells", "assay": "ECAR after αCD3/28 bead stimulation with or without Mdivi-1", "format": "cell-based, mice", "conditions": "αCD3/28-conjugated beads, 10 μM Mdivi-1 vs control", "excerpt": "(§1) FIG. 6A, FIG. 6B, FIG. 6C, FIG. 6D, FIG. 6E, FIG. 6F, FIG. 6G, FIG. 6H, FIG. 6I, FIG. 6J, FIG. 6K, FIG. 6L, FIG. 6M, and FIG. 6N depict graphs and images showing that mitochondrial cristae remodeling signals metabolic pathway engagement. (FIG. 6A) Basal ECAR of OT-I Opa1^+/+ and Opa1^−/− IL-2 TE cells (left) and day 7 TE cells isolated ex vivo after adoptive transfer from LmOVA infection (right). Data combined from 2-3 experiments (*p=0.0412, ***p<0.0001). (FIG. 6B) OCR at baseline and after indicated drugs, representative of 2 experiments shown as mean±SEM, and (FIG. 6C) D-Glucose-^13C1,2 trace analysis of OT-I Opa1^+/+ and Opa1^−/− IL-2 TE cells. Each lane represents separate mice with a technical replicate. […] (FIG. 6K) IL-15 TM cell, (FIG. 6L, FIG. 6M) bone marrow-derived dendritic cell (BM-DCs) and macrophage (BM-Macs) % ECAR measured at baseline and after media, αCD3/CD28-conjugated bead, LPS, or LPS+IFN-γ injection as indicated. […]\n(§2) To more directly test this idea, we assessed ECAR of IL-15 TM cells that were stimulated with αCD3/28-conjugated beads in the presence or absence of Mdivi-1. […] We stimulated bone marrow derived dendritic cells (BM-DCs) and macrophages (BM-Macs) with lipolysaccharide (LPS) with or without interferon (IFN)-γ in the presence or absence of Mdivi-1 and measured ECAR. […]"}, "mitochondrial fission": {"system": "mitochondrial fission", "conditions": "as disclosed in Cassidy-Stone et al. Developmental Cell 2008; cited from earlier work"}, "IL-15 TM cells [2]": {"system": "IL-15 TM cells", "assay": "EM analysis of mitochondrial cristae after stimulation with or without Mdivi-1", "format": "cell-based, mice", "conditions": "IL-15 TM cells activated with αCD3/CD28-conjugated beads or PMA and ionomycin, presence or absence of Mdivi-1", "excerpt": "as §1, with “replicate. (FIG. 6D) EM analysis of mitochondrial cristae from TE and TM cells isolated after LmOVA infection and (FIG. 6E) in vitro cultured IL-2 TE and TM cells. Data representative of 2 experiments, scale bar=0.25 μm.” for “replicate.”\nTo more thoroughly examine this idea, we assessed cristae morphology in TE and TM cells by EM following TCR stimulation. […]"}, "BM-Macs": {"system": "BM-Macs", "assay": "intracellular Nos2 protein by flow cytometry", "format": "cell-based, mice", "conditions": "stimulated BM-Macs, Mdivi-1 treated"}, "[3]": {"system": "bone marrow derived dendritic cells (BM-DCs)", "assay": "ECAR after LPS stimulation with or without Mdivi-1, dendritic cells", "format": "cell-based, mice", "conditions": "BM-DCs following stimulation with LPS, 10 μM Mdivi-1", "excerpt": "as §1, §2"}, "[4]": {"system": "Bone marrow derived macrophages (BM-Macs)", "assay": "ECAR after LPS with or without IFN-γ stimulation with or without Mdivi-1, macrophages", "format": "cell-based, mice", "conditions": "BM-Macs following stimulation with LPS with or without IFN-γ, 10 μM Mdivi-1", "excerpt": "as §1, §2"}}, "data": [{"smiles": "COc1cc(-n2c(=S)[nH]c3ccccc3c2=O)c(Cl)cc1Cl", "note": "[Mdivi-1]", "values": [{"measurement": "aerobic glycolysis (ECAR)", "setting": "IL-15 TM cells [1]", "value": "did not robustly increase aerobic glycolysis"}, {"measurement": "efficacy relative to Mdivi-1 as mitochondrial fission inhibitor", "setting": "mitochondrial fission", "value": "full efficacy"}, {"measurement": "cristae morphology by EM", "setting": "IL-15 TM cells [2]", "value": "intermembrane space widening over time in control cells in comparison to drug treated cells"}, {"measurement": "nitric oxide synthase 2 (Nos2) protein expression", "setting": "BM-Macs", "value": "significantly decreased"}, {"measurement": "aerobic glycolysis (ECAR)", "setting": "[3]", "value": "curtailed"}, {"measurement": "aerobic glycolysis (ECAR)", "setting": "[4]", "value": "curtailed"}]}]}
